EC50 data for 38 compounds are collected here from US20060045953A1 (priority 2004, published 2006).

Structures are written as SMILES.

For the first test, the target named is T1, hT1R1/hT1R3 umami receptor (Homo sapiens, UniProt Q7RTX0+Q7RTX1).
T1 construct: expressed in transfected cells; host or cells: HEK293 derivative stably expressing Gα15, clone I-17, expression induced with mifepristone
T1 sequence (Q7RTX1 21-841): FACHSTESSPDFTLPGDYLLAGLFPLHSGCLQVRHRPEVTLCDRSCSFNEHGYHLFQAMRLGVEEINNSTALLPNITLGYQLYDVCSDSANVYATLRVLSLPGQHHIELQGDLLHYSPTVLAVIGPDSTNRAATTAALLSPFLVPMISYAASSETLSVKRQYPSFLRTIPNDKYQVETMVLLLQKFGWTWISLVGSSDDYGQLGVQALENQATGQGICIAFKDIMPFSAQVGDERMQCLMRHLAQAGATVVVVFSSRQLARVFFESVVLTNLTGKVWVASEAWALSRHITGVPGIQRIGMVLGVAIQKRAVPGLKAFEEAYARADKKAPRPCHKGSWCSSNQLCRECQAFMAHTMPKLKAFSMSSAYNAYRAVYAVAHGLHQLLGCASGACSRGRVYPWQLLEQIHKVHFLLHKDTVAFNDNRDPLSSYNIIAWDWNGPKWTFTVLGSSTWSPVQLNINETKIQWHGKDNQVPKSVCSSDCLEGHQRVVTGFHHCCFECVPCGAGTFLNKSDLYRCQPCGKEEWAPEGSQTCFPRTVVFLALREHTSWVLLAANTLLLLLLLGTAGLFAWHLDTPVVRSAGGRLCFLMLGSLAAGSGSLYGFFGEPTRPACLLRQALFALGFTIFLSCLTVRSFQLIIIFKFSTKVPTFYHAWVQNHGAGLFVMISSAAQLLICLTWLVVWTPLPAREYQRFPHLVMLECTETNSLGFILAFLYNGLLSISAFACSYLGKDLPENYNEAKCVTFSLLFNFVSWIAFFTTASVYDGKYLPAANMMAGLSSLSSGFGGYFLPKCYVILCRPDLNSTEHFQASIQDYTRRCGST
T1 sequence (Q7RTX0 21-852): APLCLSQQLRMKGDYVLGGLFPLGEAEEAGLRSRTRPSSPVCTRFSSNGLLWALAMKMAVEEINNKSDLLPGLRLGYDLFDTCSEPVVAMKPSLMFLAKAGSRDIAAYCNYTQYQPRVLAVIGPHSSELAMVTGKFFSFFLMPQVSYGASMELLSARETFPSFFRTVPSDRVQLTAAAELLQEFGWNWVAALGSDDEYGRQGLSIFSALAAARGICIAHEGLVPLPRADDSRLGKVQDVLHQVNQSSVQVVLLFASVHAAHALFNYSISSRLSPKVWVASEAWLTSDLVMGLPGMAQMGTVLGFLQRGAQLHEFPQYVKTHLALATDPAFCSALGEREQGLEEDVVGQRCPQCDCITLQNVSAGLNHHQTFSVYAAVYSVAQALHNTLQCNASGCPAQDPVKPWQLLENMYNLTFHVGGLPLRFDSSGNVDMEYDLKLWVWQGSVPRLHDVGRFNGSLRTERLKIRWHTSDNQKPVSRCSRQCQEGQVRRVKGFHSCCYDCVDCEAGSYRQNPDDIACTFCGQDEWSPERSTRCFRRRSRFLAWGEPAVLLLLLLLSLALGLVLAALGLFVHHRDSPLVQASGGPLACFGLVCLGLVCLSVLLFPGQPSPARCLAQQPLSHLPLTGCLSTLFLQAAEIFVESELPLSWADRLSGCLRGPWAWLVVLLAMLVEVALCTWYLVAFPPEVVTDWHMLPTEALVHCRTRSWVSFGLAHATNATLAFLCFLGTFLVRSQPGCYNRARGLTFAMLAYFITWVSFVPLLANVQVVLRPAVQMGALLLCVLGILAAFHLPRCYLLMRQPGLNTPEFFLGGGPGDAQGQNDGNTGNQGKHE
As to the kind of experiment: In vitro hT1R1/hT1R3 umami taste receptor activation assay (FLIPR, dose response). The format is cell-based. Particulars: Table A, Umami Amides; read-out: Umami EC50.
For the compound `COc1ccc(C(=O)NC2CCc3cccc(C)c32)cc1C` (centres unmarked) [Example A129, 4-methoxy-3-methyl-N-(7-methyl-2,3-dihydro-1H-inden-1-yl)benzamide], the EC50 is 1030 nM. In the case of `CCOc1ccc(C(=O)NC(CC)CC(C)C)cc1C` (centres unmarked) [Example A72, 4-ethoxy-3-methyl-N-(5-methylhexan-3-yl)benzamide], the EC50 was 340 nM. As for `CCCC(CCC)NC(=O)c1cccc(OC)c1O` [Example A84, N-(heptan-4-yl)-2-hydroxy-3-methoxybenzamide], the EC50 came out at 530 nM. Consider `COc1ccc(C(=O)NC(CO)CC(C)C)cc1Cl` (centres unmarked) [Example A98, 3-chloro-N-(1-hydroxy-4-methylpentan-2-yl)-4-methoxybenzamide], for which the EC50 stood at 880 nM. On the same count and under the same terms, the figure for `CCCC(CCC)NC(=O)c1ccc(OC)cc1O` [Example A101, N-(heptan-4-yl)-2-hydroxy-4-methoxybenzamide] is 1160 nM. As to `Cc1ccoc1C(=O)NC1CCCC(C)C1C` (centres unmarked) [Example A32, N-(2,3-dimethylcyclohexyl)-3-methylfuran-2-carboxamide], the EC50 worked out at 1150 nM.

As to `CCCC(CCC)NC(=O)c1ccc(OC)c(C)c1` [Example A61, N-(heptan-4-yl)-4-methoxy-3-methylbenzamide], the EC50 came out at 220 nM. Regarding `CCC(NC(=O)c1cc2cc(OC)ccc2o1)C(C)C` (centres unmarked) [Example A16, 5-methoxy-N-(2-methylpentan-3-yl)benzofuran-2-carboxamide], the EC50 was found to be 1180 nM. On to `COC(=O)[C@@H](CC(C)C)NC(=O)c1cc(C)c(OC)c(C)c1` [Example A95, (R)-methyl 2-(4-methoxy-3,5-dimethylbenzamido)-4-methylpentanoate], for which the EC50 came to 740 nM.

`CCCC(NC(=O)c1cc2cc(OC)ccc2o1)C(C)C` (centres unmarked) [Example A12, 5-methoxy-N-(2-methylhexan-3-yl)benzofuran-2-carboxamide]: the EC50 was found to be 1130 nM. Still for that read-out and setting: the same measure for `COC(=O)[C@@H](CC(C)C)NC(=O)c1ccc(OC)c(C)c1` [Example A63, (R)-methyl 2-(4-methoxy-3-methylbenzamido)-4-methylpentanoate]: 250 nM; for `COc1cccc(C(=O)NC2CCCCC2C)c1N` (centres unmarked) [Example A125, 2-amino-3-methoxy-N-(2-methylcyclohexyl)benzamide]: 20 nM. Take `CCOC(=O)[C@H]1CCCC[C@H]1NC(=O)c1ccc(OC)c(Cl)c1` [Example A103, (1S,2R)-ethyl 2-(3-chloro-4-methoxybenzamido)cyclohexanecarboxylate]: the EC50 worked out at 1360 nM. `CCCC(CCC)NC(=O)c1cc2cccc(OC)c2o1` [Example A130, N-(heptan-4-yl)-7-methoxybenzofuran-2-carboxamide]: the EC50 turned out to be 160 nM.

Still in this test, the particulars now being: Table B, Umami Oxalamides; read-out: Umami EC50.
For the compound `CC(C)Oc1ccccc1CNC(=O)C(=O)NCCc1ccccn1` [Example B4, N1-(2-isopropoxybenzyl)-N2-(2-(pyridin-2-yl)ethyl)oxalamide], the EC50 stood at 1220 nM.

Still in this test, the particulars now being: Table C, Umami Ureas; read-out: Umami EC50.
`CCC(NC(=O)Nc1ccc(Cl)cc1Cl)c1ccccc1` (centres unmarked) [Example C2, 1-(2,4-dichlorophenyl)-3-(1-phenylpropyl)urea]: the EC50 is 490 nM. For `COc1ccccc1NC(=O)NC(C(C)C)C(C)C` [Example C17, 1-(2,4-dimethylpentan-3-yl)-3-(2-methoxyphenyl)urea], the EC50 turned out to be 240 nM.

Take `CC1CCCCC1NC(=O)Nc1ccccc1Cl` (centres unmarked) [Example C3, 1-(2-chlorophenyl)-3-(2-methylcyclohexyl)urea]: the EC50 is 520 nM.

Still in this test, the particulars now being: Table D, Umami Acrylamides; read-out: Umami EC50.
As to `CCC/C=C\C(=O)NC(CCC)CCC` [Example D9, (Z)-N-(heptan-4-yl)hex-2-enamide], the EC50 was 980 nM. Same read-out and setting: the figure for `CCCC(CCC)NC(=O)/C=C/c1ccsc1` [Example D15, (E)-N-(heptan-4-yl)-3-(thiophen-3-yl)acrylamide] is 1540 nM. On the same count and under the same terms, the same measure for `COC(=O)[C@@H](CC(C)C)NC(=O)/C=C/c1ccc(OC)cc1` [Example D2, (R,E)-methyl 2-(3-(4-methoxyphenyl)acrylamido)-4-methylpentanoate]: 320 nM.

The test is the same for the next values; noted with them: opposite enantiomers compared; read-out: AFFINITY FOR T1R1/T1R3 SAVORY RECEPTOR EC50 UM.
Turning to `COc1cccc(C(=O)N[C@H]2CCCc3ccccc32)c1N`, the EC50 stood at 10 nM. Consider `COc1ccc(C(=O)N[C@H]2CCc3ccccc32)cc1C` [drawing 26, (S)-N-(2,3-dihydro-1H-inden-1-yl)-4-methoxy-3-methylbeuzamide], for which the EC50 came to 80 nM.

Still in this test, the particulars now being: read-out: EC50 for activation of a hT1R1/hT1R3 umami receptor expressed in an HEK293 cell line.
On to `CCCC(CCC)NC(=O)c1ccc(OC)cc1C#N` [Example 97, 2-cyano-N-(heptan-4-yl)-4-methoxybenzamide], for which the EC50 was determined as 1390 nM. Consider `CCCC(CCC)NC(=O)c1ccc2c(c1)OCCO2` [Example 23, 2,3-Dihydro-benzo[1,4]dioxine-6-carboxylic acid (1-propyl-butyl)-amide], for which the EC50 turned out to be 490 nM. As for `COc1ccc(CNC(=O)C(=O)NCC(C)c2ccccn2)c(OC)c1` (centres unmarked) [Example 144, N-(294-Dilmethoxybenzyl)-N′-(2-(pyridin-2-yl)propyl)oxalamide], the EC50 was determined as 1070 nM. On to `CCCC(CC)NC(=O)c1ccc(OC)c(C)c1` (centres unmarked) [Example 12, N-(hexan-3-yl)-4-methoxy-3-methylbenzamide], for which the EC50 amounted to 120 nM. Take `CCCC(CCC)NC(=O)c1ccc2ocnc2c1` [Example 39, benzooxazole-5-carboxylic acid (1-propylbutyl)amide]: the EC50 was 1910 nM. On the same count and under the same terms, the same measure for `CCCC(CCC)NC(=O)/C=C/c1cccs1` [Example 77, (E)-N-(heptan-4-yl)-3-(thiophen-2-yl)acrylamide]: 440 nM; for `COc1ccc(C(=O)N[C@H](CC(C)C)c2nc(C)no2)cc1C` [Example 55, (R)-4-methoxy-3-methyl-N-(3-methyl-1-(3-methyl-1,2,4-oxadiazol-5-yl)butyl)benzamide]: 5400 nM; for `COC(=O)c1ccc(CNC(=O)C(=O)NCCc2ccccn2)cc1` [Example 141, N-((4-Methoxycarbonylphenyl)methyl)-N′-(2-(pyridin-2-yl)ethyl)oxalamide]: 3630 nM. In the case of `O=C(NCCc1ccccn1)C(=O)NCc1ccc2c(c1)OCO2` [Example 138, N-(benzo[d][1,3]dioxol-5-ylmethyl)-N′-(2-(Pyridin-2-yl)ethyl)oxalamide], the EC50 turned out to be 500 nM. Regarding `CCCC(CC(C)C)NC(=O)c1ccc2c(c1)OCO2` (centres unmarked) [Example 2, N-(2-methylheptan-4-yl)benzo[d][1,3]dioxole-5-carboxamide], the EC50 is 220 nM. Consider `CC(C)CC(COP(=O)(O)O)NC(=O)c1ccc2c(c1)OCO2` (centres unmarked) [Example 11, 2-(benzo[d][1,3]dioxole-6-carboxamido)-4-methylpentyl dihydrogen phosphate], for which the EC50 was 10900 nM. For `CCCC(CCC)NC(=O)c1cc2ccccc2[nH]1` [Example 35, N-(heptan-4-yl)-1H-indole-2-carboxamide], the EC50 came to 6800 nM. Consider `COc1ccc(CNC(=O)C(=O)NCCc2ncccc2C)c(OC)c1` [Example 129, N-(2,4-Dimethoxybenzyl)-N′-(2-(3-methylpyridin-2-yl)ethyl)oxalamide], for which the EC50 is 1640 nM. For `CCCC(CC)NC(=O)c1cc2cc(OC)ccc2o1` (centres unmarked) [Example 29, N-(hexan-3-yl)-5-methoxybenzofuran-2-carboxamide], the EC50 was 400 nM. Regarding `CCCC(CCC)NC(=O)c1cc2c(cc1C)OCO2` [Example 17, N-(heptan-4-yl)-6-methylbenzo[d][1,3]dioxole-5-carboxamide], the EC50 was 110 nM.
